In assay [1] the target is T1, Pantothenate kinase 3 (Homo sapiens, UniProt Q9H999). Nature of the assay: Inhibition of Pank3 (unknown origin) by Kinase Glo HTS assay.
Target sequence in this assay (Q9H999 whole entry): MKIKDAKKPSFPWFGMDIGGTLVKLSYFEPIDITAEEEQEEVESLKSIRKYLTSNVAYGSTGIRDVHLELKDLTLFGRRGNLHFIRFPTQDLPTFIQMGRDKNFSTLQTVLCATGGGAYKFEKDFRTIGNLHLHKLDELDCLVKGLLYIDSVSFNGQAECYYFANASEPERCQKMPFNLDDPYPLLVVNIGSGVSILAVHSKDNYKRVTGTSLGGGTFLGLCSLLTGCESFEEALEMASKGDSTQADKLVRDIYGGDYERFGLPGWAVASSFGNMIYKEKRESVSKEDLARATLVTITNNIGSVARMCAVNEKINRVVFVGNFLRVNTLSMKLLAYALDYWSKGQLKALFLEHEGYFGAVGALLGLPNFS
Assay [2] addresses T2, Pantothenate kinase 1 (Homo sapiens, UniProt Q8TE04). Nature of the assay: Inhibition of Pank1beta (unknown origin) by Kinase Glo HTS assay. For orientation: Kinase-Glo reads ATP consumption through a luciferase reaction.
The target of assay [3] is T1, Pantothenate kinase 3. The assay can be described thus: Activation of Pank3 (unknown origin) by Kinase Glo HTS assay.
Target sequence in this assay (Q9H999 whole entry): as above
The target of assay [4] is T3, Pantothenate kinase 2, mitochondrial (Homo sapiens, UniProt Q9BZ23).
T3 sequence (Q9BZ23 whole entry): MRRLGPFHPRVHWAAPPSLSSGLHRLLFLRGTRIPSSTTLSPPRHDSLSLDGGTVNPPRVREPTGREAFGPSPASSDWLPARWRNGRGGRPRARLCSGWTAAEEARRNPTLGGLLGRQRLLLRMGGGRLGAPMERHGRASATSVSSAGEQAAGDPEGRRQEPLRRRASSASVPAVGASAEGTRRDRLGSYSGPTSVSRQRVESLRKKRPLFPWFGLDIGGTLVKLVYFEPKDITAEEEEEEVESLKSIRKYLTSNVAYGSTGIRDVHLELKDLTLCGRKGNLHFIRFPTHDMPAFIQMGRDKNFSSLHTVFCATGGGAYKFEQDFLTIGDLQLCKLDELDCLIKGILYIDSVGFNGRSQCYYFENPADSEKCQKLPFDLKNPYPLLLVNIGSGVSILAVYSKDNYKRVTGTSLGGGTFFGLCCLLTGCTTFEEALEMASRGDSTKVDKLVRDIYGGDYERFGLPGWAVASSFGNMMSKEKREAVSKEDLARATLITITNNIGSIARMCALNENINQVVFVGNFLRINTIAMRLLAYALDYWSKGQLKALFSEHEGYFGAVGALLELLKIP
The assay can be described thus: Inhibition of purified human Pank2 using d-[1-14C]pantothenate as substrate after 10 mins by radiochemical enzyme assay.

Assay [5] addresses T1, Pantothenate kinase 3. Nature of the assay: Inhibition of purified human Pank3 using d-[1-14C]pantothenate as substrate after 10 mins by radiochemical enzyme assay.
Target sequence in this assay (Q9H999 whole entry): as the sequence (Q9H999 whole entry) above
Assay [6] deals with T2, Pantothenate kinase 1. The assay can be described thus: Inhibition of purified human Pank1beta using d-[1-14C]pantothenate as substrate after 10 mins by radiochemical enzyme assay.
The target in assay [7] is T1, Pantothenate kinase 3.
Target sequence in this assay (Q9H999 whole entry, looked up): as the sequence (Q9H999 whole entry) above
Description: Binding affinity to purified human Pank3 assessed as thermal stabilization by thermal shift assay in presence of 2 mM ATP/Mg2+

Each structure is given as a SMILES string.

T2 sequence (Q8TE04 whole entry): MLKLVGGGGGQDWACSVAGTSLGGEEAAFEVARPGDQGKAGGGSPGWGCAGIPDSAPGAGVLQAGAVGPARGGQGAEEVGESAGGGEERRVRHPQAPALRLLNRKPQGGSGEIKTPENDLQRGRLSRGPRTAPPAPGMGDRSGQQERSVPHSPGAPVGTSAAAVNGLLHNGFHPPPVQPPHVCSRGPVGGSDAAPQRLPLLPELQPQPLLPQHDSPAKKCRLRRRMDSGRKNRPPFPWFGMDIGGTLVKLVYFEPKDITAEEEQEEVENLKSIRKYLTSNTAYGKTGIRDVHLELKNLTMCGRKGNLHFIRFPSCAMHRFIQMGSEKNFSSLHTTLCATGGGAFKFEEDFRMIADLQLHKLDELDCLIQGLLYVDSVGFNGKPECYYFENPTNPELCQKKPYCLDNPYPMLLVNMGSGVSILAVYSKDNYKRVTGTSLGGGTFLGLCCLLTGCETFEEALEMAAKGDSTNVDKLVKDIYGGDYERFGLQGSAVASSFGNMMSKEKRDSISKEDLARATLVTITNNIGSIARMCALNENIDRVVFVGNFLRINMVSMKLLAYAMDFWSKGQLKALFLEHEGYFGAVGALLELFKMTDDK

What is called IC50 is the concentration that gives 50% inhibition. Lower therefore signals greater potency. With `Cc1nc2c3cccnc3nn2c(C)c1CCC(=O)Nc1ccccc1F`, the IC50 came to 13.6 µM on Pantothenate kinase 3 [1] and 0.55 µM at Pantothenate kinase 1 [2].

A word on the EC50: it is the concentration at which the effect is half-maximal. The compound `Cc1ccc(NC(=O)N2CCN(c3ccccc3F)CC2)c(C)c1` displayed an EC50 on Pantothenate kinase 3 [3] of 2.41 µM.

On to `CCS(=O)(=O)Nc1ccc(C(=O)NC2CC3CCC2C3)cc1` (stereo not drawn), for which the midpoint of inhibition on Pantothenate kinase 3 [1], the IC50, lay at 0.18 µM.

For the compound `CC(=O)Nc1ccc(NC(=O)CCc2c(C)nc3c4cccnc4nn3c2C)cc1`, the concentration for half-maximal inhibition (IC50) on Pantothenate kinase 3 [1] was 0.35 µM; against Pantothenate kinase 1 [2] it was 0.64 µM.

With `Cc1nc2c3cccnc3nn2c(C)c1CCC(=O)NCC1CCCCC1`, the IC50 against Pantothenate kinase 3 [1] amounted to 40.9 µM; against Pantothenate kinase 1 [2], 1.22 µM.

As to `Cc1nc2c3cccnc3nn2c(C)c1CCC(=O)NCc1ccc(F)cc1`, the IC50 on Pantothenate kinase 3 [1] and at Pantothenate kinase 1 [2] was greater than 56 µM in each case.

`CC(C)c1ccc(NC(=O)CCc2nc(O)c3c4c(sc3n2)CCC4)cc1`: the IC50 against Pantothenate kinase 3 [1] worked out at 0.12 µM.

On to `CC(C(=O)Nc1cc(Cl)ccc1Cl)N1CCC(C(=O)NCc2ccccc2)CC1` (stereo not drawn), for which the EC50 on Pantothenate kinase 3 [3] came to 1.72 µM.

Turning to `Cc1nc2c3cccnc3nn2c(C)c1CCC(=O)Nc1cccc(F)c1`, the IC50 against Pantothenate kinase 3 [1] came out at 0.62 µM; on Pantothenate kinase 1 [2], 0.24 µM.

On to `Cc1nc2c3cccnc3nn2c(C)c1CCC(=O)NCc1cccc(F)c1`, for which the IC50 was found to be 10 µM against Pantothenate kinase 3 [1] and 15.8 µM against Pantothenate kinase 1 [2].

Regarding `COc1cccc(NC(=O)CCc2c(C)nc3c4cccnc4nn3c2C)c1`, the IC50 against Pantothenate kinase 3 [1] turned out to be 1.64 µM; on Pantothenate kinase 1 [2], 0.28 µM.

For the compound `CSc1cccc(NC(=O)CCc2c(C)nc3c4cccnc4nn3c2C)c1`, the IC50 against Pantothenate kinase 3 [1] is 0.36 µM; in assay [4], 0.092 µM; on Pantothenate kinase 3 [5], 0.025 µM; on Pantothenate kinase 1 [2], 0.14 µM; against Pantothenate kinase 1 [6], 0.07 µM. Besides, the Kapp on Pantothenate kinase 3 [7] came out at 0.3 µM.

As to `Cc1ccc(NC(=O)CCc2c(C)nc3c4cccnc4nn3c2C)cc1`, the IC50 at Pantothenate kinase 3 [1] worked out at 25.6 µM; on Pantothenate kinase 1 [2], 11.2 µM.

Regarding `Cc1nc2c3cccnc3nn2c(C)c1CCC(=O)Nc1ccc(F)cc1`, the IC50 on Pantothenate kinase 3 [1] and on Pantothenate kinase 1 [2] was greater than 56 µM in each case.

In the case of `COC(=O)c1cccc(NC(=O)CCc2c(C)nc3c4cccnc4nn3c2C)c1`, the IC50 against Pantothenate kinase 3 [1] and against Pantothenate kinase 1 [2] was greater than 56 µM each time.

For the compound `COc1ccc(CNC(=O)CCc2c(C)nc3c4cccnc4nn3c2C)cc1`, the figures for the IC50 on Pantothenate kinase 3 [1] and on Pantothenate kinase 1 [2] were 25.8 µM and 14.7 µM, respectively.

Regarding `Cc1nc2c3cccnc3nn2c(C)c1CCC(=O)Nc1ccccc1`, the IC50 on Pantothenate kinase 3 [1] came to 24.5 µM; against Pantothenate kinase 1 [2] it was 0.85 µM.

The compound `O=C(Cc1ccc(F)cc1)N1CCN(c2nc3c(Cl)cccc3s2)CC1` registered a concentration giving a half-maximal response (EC50) on Pantothenate kinase 3 [3] of 1.51 µM.

As to `Cc1cccc(NC(=O)CCc2c(C)nc3c4cccnc4nn3c2C)c1`, the IC50 turned out to be 3.84 µM at Pantothenate kinase 3 [1] and 1.57 µM on Pantothenate kinase 1 [2].

Turning to `COc1ccccc1NC(=O)CCc1c(C)nc2c3cccnc3nn2c1C`, the IC50 against Pantothenate kinase 3 [1] and on Pantothenate kinase 1 [2] was greater than 56 µM each time.

Consider `COc1cccc(CNC(=O)CCc2c(C)nc3c4cccnc4nn3c2C)c1`, for which the half-maximal inhibitory concentration (IC50) against Pantothenate kinase 3 [1] and on Pantothenate kinase 1 [2] was greater than 56 µM throughout.

In the case of `Cc1nc2c3cccnc3nn2c(C)c1CCC(=O)NC1CCCCC1`, the IC50 against Pantothenate kinase 3 [1] is greater than 56 µM; against Pantothenate kinase 1 [2], 13.6 µM.

For the compound `Cc1nc2c3cccnc3nn2c(C)c1CCC(=O)N(C)c1ccccc1`, the IC50 at Pantothenate kinase 3 [1] and on Pantothenate kinase 1 [2] was greater than 56 µM in each case.

Consider `CCN(CC)c1ccc(CNc2nn[nH]n2)cc1`, for which the EC50 at Pantothenate kinase 3 [3] turned out to be 3.43 µM.

`CC(C)CCNC(=O)c1csc(-c2cccc(Cl)c2Cl)n1` displayed an IC50 on Pantothenate kinase 3 [1] of 2.45 µM.

Consider `CSc1ccc(NC(=O)CCc2c(C)nc3c4cccnc4nn3c2C)cc1`, for which the IC50 came to 10.5 µM against Pantothenate kinase 3 [1] and 3.24 µM against Pantothenate kinase 1 [2].

For `Cc1nc2c3cccnc3nn2c(C)c1CCC(=O)Nc1cccc(C(F)(F)F)c1`, the half-inhibitory concentration (IC50) against Pantothenate kinase 3 [1] is 0.83 µM; on Pantothenate kinase 1 [2], 0.19 µM.

On to `COc1ccc(NC(=O)CCc2c(C)nc3c4cccnc4nn3c2C)cc1`, for which the IC50 against Pantothenate kinase 3 [1] is 11.3 µM; against Pantothenate kinase 1 [2], 6.69 µM.

Source of the values: ChEMBL document CHEMBL3407433, “A high-throughput screen reveals new small-molecule activators and inhibitors of pantothenate kinases” (J Med Chem, 2015).
